Test results reported in US4092350A, “Alkanoic acid, process for its production and method of use thereof” (priority 1975, dated 1978).
Where two headings read alike, the source gives them in different places.

How the values were obtained:
[1] = test system: Carrageenin-Induced Paw Edema; test: Inhibition of Carrageenin-Induced Paw Edema; type: in vivo, male Donryu rats; details: Rattus norvegicus, rats, oral; for ED40: 3 h
Protocol: (§1) (a) Inhibition of Carrageenin-Induced Paw Edema
(§2) Following the method of C. […] The volume of the paw was measured before and 3 hours after the carrageenin injection. The swelling index of the inflamed paw was calculated as follows. [formula]
(§3) Inhibitory percentage was calculated as follows. [formula] (b) Inhibition of Intraperitoneal Dye Leakage

[2] = test system: Intraperitoneal Dye Leakage; test: Inhibition of Intraperitoneal Dye Leakage; type: in vivo, male Donryu rats; details: Rattus norvegicus, 0.75 h, rats, oral
Protocol: as §3
(§4) Five minutes thereafter, 0.2 ml. / 100 g. body weight of 3% acetic acid was injected intraperitoneally. The dye in the peritoneal exudation, sampled 45 minutes after the acetic acid injection, was subjected to the spectro-photometric estimation at 620 mμ. Inhibitory percentage was calculated as follows. [formula]

Granuloma Formation [3] = test: Inhibition of Granuloma Formation by Granuloma Pouch Method; type: in vivo, male Wistar rats; details: Rattus norvegicus, 144 h; for ED20: read-out: ED20, Inhibition of Granuloma Formation by Granuloma Pouch Method
Protocol: (§5) (c) Inhibition of Granuloma Formation by Gramuloma Pouch Method
(§6) Thereafter, the compounds were administered orally. Beginning the next day, the compounds were administered orally at 9:00 a.m. and 4:00 p.m. for 6 days. The day after final administration, the granuloma pouches were removed and weighed. Inhibitory percentage was calculated as follows: [formula] (d) Acute Toxicity

in vivo = details: rats, oral, 7-day observation
Protocol: as §6
The compounds were administered orally in male Wistar rats weighing 200 ± 10 g. The rats were observed over a 7-day period.

[4] = Inhibition of Carrageenin-Induced Paw Edema; type: in vivo, male Donryu rats; details: rat, in vivo; rats, oral; ratio of LD50 to ED40; read-out: LD50/ED40, Carrageenin-Induced Paw Edema (safety margin)
Protocol: as §1, §2, §3

[5] = Inhibition of Intraperitoneal Dye Leakage; type: in vivo, male Donryu rats; details: rat, in vivo; rats, oral; ratio of LD50 to ED30; read-out: LD50/ED30, Intraperitoneal Dye Leakage (safety margin)
Protocol: as §3, §4

[6] = Inhibition of Granuloma Formation by Granuloma Pouch Method; type: in vivo, male Wistar rats; details: rat, in vivo; rats, oral; ratio of LD50 to ED20; read-out: LD50/ED20, Granuloma Pouch Method (safety margin)
Protocol: as §5, §6

[7] = Inhibition of Granuloma Formation by Cotton Pellet Method; type: in vivo, male Donryu rats; details: rat, in vivo; rats, oral; ratio of LD50 to ED20; read-out: LD50/ED20, Cotton Pellet Method (safety margin)
Protocol: (§7) (e) Inhibition of Granuloma Formation by Cotton Pellet Method
(§8) Following the method of C. […] Thereafter, the compounds were administered orally. Beginning the next day, the compounds were administered orally at 9:00 a.m. and 4:00 p.m. for 3 days. The day after final administration, the pellets were removed, dried and weighed to determine the weight of the granuloma formed around the pellets. Inhibitory percentage was calculated as follows: [formula] (f) Analgesic Activity by Acetylcholine-Induced Writhing Method in Mice

Granuloma Formation [8] = test: as above; type: in vivo, male Donryu rats; details: Rattus norvegicus, 72 h; rats, oral, twice daily for 3 days
Protocol: as §7, §8

[9] = test system: Acetylcholine-Induced Writhing; test: Analgesic Activity by Acetylcholine-Induced Writhing Method in Mice; type: in vivo, male SLC-ICR mice; details: Mus musculus, oral, 60 minutes before acetylcholine
Protocol: Following the method of C. A. Winter, et al. (J. Pharmac. Exp., Ther., 141, 369 (1963)), in male Donryu rats weighing 130 ± 10 g., two sterilized cotton pellets weighing 35 ± 1 mg. respectively were embedded subcutaneously at the lateral abdomen aseptically. Thereafter, the compounds were administered orally. Beginning the next day, the compounds were administered orally at 9:00 a.m. and 4:00 p.m. for 3 days. The day after final administration, the pellets were removed, dried and weighed to determine the weight of the granuloma formed around the pellets. Inhibitory percentage was calculated as follows: [formula] (f) Analgesic Activity by Acetylcholine-Induced Writhing Method in Mice
Following the method of S. S. Adams (Arch. Int. Pharmacodyn., 178, 115 (1969)), in male SLC-ICR mice weighing 20 ± 1 g., the writhing response was caused by the intraperitoneal injection of 0.1 ml. / 10 g. body weight of 7.5 mg. / kg. acetylcholine dissolved in physiological saline. The test compounds were administered orally 60 minutes before the acetylcholine injection, after which the frequency of response was counted in each animal for 8 minutes. Inhibitory percentage was calculated as follows. [formula] Note; Compound A: 2-[4-(2-methyl-3-oxobutyl)phenyl]propionic acid, […]

[10] = po, read-out: Inhibition of Granuloma Formation by Granuloma Pouch Method, Inhibition (%)

Compound CC(=O)C(C)Cc1ccc(C(C)C(=O)O)cc1 (centres unmarked) [Compound A, 2-[4-(2-methyl-3-oxobutyl)phenyl]propionic acid] has an inhibition at 3 mg/kg ([1]; 3 hours after carrageenin) of 31.7%, an inhibition at 2 mg/kg ([2]; 45 minutes after acetic acid) of 30.6% and an inhibition at 8 mg/kg (Granuloma Formation [3]; rats, oral, 8 mg/kg, twice daily for 6 days) of 22.3%. For the same compound, the “Acute Toxicity, Died/Treated” value (in vivo; 250 mg/kg) was 1/8.

Compound CC(C(=O)O)c1ccc(CC(C)C(C)O)cc1 (centres unmarked) [Compound B, 2-[4-(2-methyl-3-hydroxybutyl)phenyl]propionic acid] has an inhibition at 3 mg/kg ([1]; 3 hours after carrageenin) of 34.9%, an inhibition at 2 mg/kg ([2]; 45 minutes after acetic acid) of 35.3% and an inhibition at 6 mg/kg (Granuloma Formation [3]; rats, oral, 6 mg/kg, twice daily for 6 days) of 24.2%. The “Acute Toxicity, Died/Treated” value (in vivo; 250 mg/kg) was 1/8.

With CCC(Cc1ccc(C(C)C(=O)O)cc1)C(C)=O (centres unmarked) [Compound C, 2-[4-(2-ethyl-3-oxobutyl)phenyl]propionic acid] the inhibition at 2 mg/kg ([1]; 3 hours after carrageenin) was 35.2%, the inhibition at 0.5 mg/kg ([2]; 45 minutes after acetic acid) was 28.2% and the inhibition at 1 mg/kg (Granuloma Formation [3]; rats, oral, 1 mg/kg, twice daily for 6 days, read-out: Inhibition of Granuloma Formation by Granuloma Pouch Method, Inhibition (%)) was 22.7%. The “Acute Toxicity, Died/Treated” value (in vivo; 125 mg/kg) was 2/8.

CCC(Cc1ccc(C(C)C(=O)O)cc1)C(C)O (centres unmarked) [Compound D, 2-[4-(2-ethyl-3-hydroxybutyl)phenyl]propionic acid] showed a selectivity ratio [4] of 52.8, an ED40 [1] of 2.5 mg/kg and an inhibition at 2 mg/kg ([1]; 3 hours after carrageenin) of 38.1%. For the same compound, the selectivity ratio [5] was 426, the ED30 [2] was 0.31 mg/kg and the inhibition at 0.5 mg/kg ([2]; 45 minutes after acetic acid) was 34.4%. For the same compound, the selectivity ratio [6] was 181, the ED20 (Granuloma Formation [3]; po) was 0.73 mg/kg and the inhibition at 1 mg/kg (Granuloma Formation [3]; [10]) was 23.5%. The LD50 at 168 h (in vivo; rat, in vivo, read-out: Acute Toxicity LD50) was 132 mg/kg, the “Acute Toxicity, Died/Treated” value (in vivo; 125 mg/kg) was 3/8 and the selectivity ratio [7] was 400. For the same compound, the ED20 (Granuloma Formation [8]) was 0.33 mg/kg and the ED50 [9] was 2.7 mg/kg.

CC(C)Cc1ccc(C(C)C(=O)O)cc1 (centres unmarked) [Ibuprofen, reference compound] showed an ED40 [1] of 16 mg/kg, an inhibition at 10 mg/kg ([1]; 10 mg/kg, 3 hours after carrageenin) of 31.2% and an ED30 [2] of 17 mg/kg. It also gave an inhibition at 10 mg/kg ([2]; 10 mg/kg, 45 minutes after acetic acid) of 17.8%, an ED20 (Granuloma Formation [3]; po) of 42 mg/kg and an inhibition at 50 mg/kg (Granuloma Formation [3]; [10]) of 21.1%. The “Acute Toxicity, Died/Treated” value (in vivo; 625 mg/kg) was 3/8, the ED20 (Granuloma Formation [8]) was 22 mg/kg and the ED50 [9] was 4.7 mg/kg.
